Test results from US20020051978A1, “Methods and compositions for the identification, assessment, prevention and therapy of human cancers” (priority 2000, published 2002).

System: 60 cancer cell lines (NCI 60 cancer cell line series)
Assay: NCI-DTP in vitro cancer screen, sulforhodamine B (SRB) growth inhibition, 48 hour exposure
Assay type: cell-based, human
Method: Cancer Cell Line Preparation. Sixty cancer cell lines were obtained from the National Cancer Institute Developmental Therapeutics Program (NCI-DTP). Procedures for growing cells and testing compounds have been described previously (Scudiero et al., Cancer Res. 1988, 48:4827-4833; Stinson et al., Anticancer Res.; Myers et al., Electrophoresis 1997, 18:647-653). Cells are plated on day 0 at a density individualized for each cell line so that they will generally be sub-confluent at the end of the assay period. On day 1, a compound is added in the format for a duplicate-well, 5-dose, ten-fold interval dose response study.
No-drug, no-cell and no-growth controls are included. On day 3 the cells are processed for staining with sulforhodamine B (SRB), which reflects the amount of cell mass present at the end of a 48 hour exposure to the test agent. From dose response curves based on the SRB data, various parameters can be determined. The one used in the present study is the G15o, defined as the concentration of compound required to inhibit growth of the cell line by 50%. More precisely, the quantity used in the calculation to be described is the potency measure -log{GI50}.
Activity database (A). Table IA, consisting of the growth inhibition (GI5o) values for the 60 cell lines and 24 compounds, was created from the NCI-DTP in vitro cancer screen database. This subset of compounds was selected from the larger 23,000 compound database available from the DTP. The compounds were selected on the basis of their known mechanism of action and chemical structure. The average potency—log{GI50} was extracted from the comma-delimited text files available through the Web at http://www.nci.nih.gov/intra/lmp/jnwbio.htmrl. Subsequently, these log{GI5o} values were inspected manually and classified as indicating either Low, Medium or High sensitivity to each compound.

CC[C@]1(O)C[C@@H]2CN(CCc3c([nH]c4ccccc34)[C@@](C(=O)OC)(c3cc4c(cc3OC)N(C)[C@H]3[C@@](O)(C(=O)OC)[C@H](OC(C)=O)[C@]5(CC)C=CCN6CC[C@]43[C@@H]65)C2)C1 [Vinblastinesulfate]
1: classification of cell line as Low(1), Medium(2) or High(3) sensitivity to compound (Breast MCF7/ADRr (CL5002))
2: classification of cell line as Low(1), Medium(2) or High(3) sensitivity to compound (Breast MDA-MB-231 CL5005) | classification of cell line as Low(1), Medium(2) or High(3) sensitivity to compound (CNS SF-268 CL12014) | classification of cell line as Low(1), Medium(2) or High(3) sensitivity to compound (CNS SF-295 CL12015)
3: classification of cell line as Low(1), Medium(2) or High(3) sensitivity to compound (Breast BT-549 (CL5013)) | classification of cell line as Low(1), Medium(2) or High(3) sensitivity to compound (Breast HS-578T CL5006) | classification of cell line as Low(1), Medium(2) or High(3) sensitivity to compound (Breast MCF7(I) (CL5001)) | classification of cell line as Low(1), Medium(2) or High(3) sensitivity to compound (Breast MDA-MB-435 (CL5011)) | classification of cell line as Low(1), Medium(2) or High(3) sensitivity to compound (Breast MDA-N CL5012) | classification of cell line as Low(1), Medium(2) or High(3) sensitivity to compound (Breast T-47D (CL5014))

Carboplatin
1: classification of cell line as Low(1), Medium(2) or High(3) sensitivity to compound (Breast MDA-MB-231 CL5005) | classification of cell line as Low(1), Medium(2) or High(3) sensitivity to compound (Breast MDA-MB-435 (CL5011)) | classification of cell line as Low(1), Medium(2) or High(3) sensitivity to compound (Breast T-47D (CL5014)) | classification of cell line as Low(1), Medium(2) or High(3) sensitivity to compound (Colon COLO-250 CL4010) | classification of cell line as Low(1), Medium(2) or High(3) sensitivity to compound (Colon HCC-2998 (CL4002)) | classification of cell line as Low(1), Medium(2) or High(3) sensitivity to compound (Colon HCT-15 CL4015) | classification of cell line as Low(1), Medium(2) or High(3) sensitivity to compound (Colon HT29(I) CL4001) | classification of cell line as Low(1), Medium(2) or High(3) sensitivity to compound (Colon KM12 (CL4017)) | sensitivity class NSCLC NCI-H332M CL1017 (cell line NSCLC NCI-H332M, CL1017) | sensitivity class Ovarian OVCAR-5 CL6003 (cell line Ovarian OVCAR-5, CL6003) | sensitivity class Prostate PC-3(I) CL11001 (cell line Prostate PC-3(I), CL11001) | sensitivity class Renal A498 CL9013 (cell line Renal A498, CL9013) | sensitivity class Renal TK10 CL9024 (cell line Renal TK10, CL9024)
14: 1 # of Low (number of the 60 cell lines classified Low (1) sensitivity)
2: classification of cell line as Low(1), Medium(2) or High(3) sensitivity to compound (Breast BT-549 (CL5013)) | classification of cell line as Low(1), Medium(2) or High(3) sensitivity to compound (Breast HS-578T CL5006) | classification of cell line as Low(1), Medium(2) or High(3) sensitivity to compound (Breast MCF7(I) (CL5001)) | classification of cell line as Low(1), Medium(2) or High(3) sensitivity to compound (Breast MCF7/ADRr (CL5002)) | classification of cell line as Low(1), Medium(2) or High(3) sensitivity to compound (Breast MDA-N CL5012) | classification of cell line as Low(1), Medium(2) or High(3) sensitivity to compound (CNS SF-539 CL12016) | classification of cell line as Low(1), Medium(2) or High(3) sensitivity to compound (CNS SNB-19 (CL12002)) | classification of cell line as Low(1), Medium(2) or High(3) sensitivity to compound (CNS SNB-75(I) CL12005) | classification of cell line as Low(1), Medium(2) or High(3) sensitivity to compound (CNS U251(I) CL12009) | classification of cell line as Low(1), Medium(2) or High(3) sensitivity to compound (Colon HCT-116 (CL4003)) | classification of cell line as Low(1), Medium(2) or High(3) sensitivity to compound (Colon SW-620 (CL4009)) | classification of cell line as Low(1), Medium(2) or High(3) sensitivity to compound (Leukemia CCRF-CEM(I) (CL7003)) | classification of cell line as Low(1), Medium(2) or High(3) sensitivity to compound (Leukemia K562(I) CL7005) | classification of cell line as Low(1), Medium(2) or High(3) sensitivity to compound (Leukemia MOLT-4 (CL7006)) | classification of cell line as Low(1), Medium(2) or High(3) sensitivity to compound (Leukemia RPMI-8226(I) (CL7010)) | classification of cell line as Low(1), Medium(2) or High(3) sensitivity to compound (Leukemia SR CL7019) | classification of cell line as Low(1), Medium(2) or High(3) sensitivity to compound (Melanoma LOX IMVI CL10001) | classification of cell line as Low(1), Medium(2) or High(3) sensitivity to compound (Melanoma M14 (CL10014)) | classification of cell line as Low(1), Medium(2) or High(3) sensitivity to compound (Melanoma MALME-3M CL10002) | sensitivity class Ovarian OVCAR-3 CL6001 (cell line Ovarian OVCAR-3, CL6001) | sensitivity class Ovarian OVCAR-4 CL6002 (cell line Ovarian OVCAR-4, CL6002) | sensitivity class Ovarian OVCAR-8 CL6005 (cell line Ovarian OVCAR-8, CL6005) | sensitivity class Ovarian SK-OV-3 CL6011 (cell line Ovarian SK-OV-3, CL6011) | sensitivity class Prostate DU-145 CL11003 (cell line Prostate DU-145, CL11003) | sensitivity class Renal 786-O CL9018 (cell line Renal 786-O, CL9018) | sensitivity class Renal ACHN CL9023 (cell line Renal ACHN, CL9023) | sensitivity class Renal CAKI-1 CL9015 (cell line Renal CAKI-1, CL9015) | sensitivity class Renal RXF-393 CL9016 (cell line Renal RXF-393, CL9016) | sensitivity class Renal SN12C CL9008 (cell line Renal SN12C, CL9008) | sensitivity class Renal UO-31 CL9004 (cell line Renal UO-31, CL9004)
38: 2 # of Medium (number of the 60 cell lines classified Medium (2) sensitivity)
8: 3 # of High (number of the 60 cell lines classified High (3) sensitivity)
3: classification of cell line as Low(1), Medium(2) or High(3) sensitivity to compound (CNS SF-268 CL12014) | classification of cell line as Low(1), Medium(2) or High(3) sensitivity to compound (CNS SF-295 CL12015) | classification of cell line as Low(1), Medium(2) or High(3) sensitivity to compound (Leukemia HL-60(I) (CL7008)) | sensitivity class NSCLC NCI-H23(I) CL1001 (cell line NSCLC NCI-H23(I), CL1001) | sensitivity class NSCLC NCI-H460 CL1021 (cell line NSCLC NCI-H460, CL1021) | sensitivity class NSCLC NCI-H522 CL1003 (cell line NSCLC NCI-H522, CL1003) | sensitivity class Ovarian IGROV1 CL6010 (cell line Ovarian IGROV1, CL6010)
